Patent US4889953A, “Glycerol derivatives, their production and use” (Takeda Chemical Industries, Ltd., priority 1986, dated 1989)
Where two headings read alike, the source gives them in different places.

How the values were obtained:
[1] = system: Sarcoma 180 cells; assay: Antitumor action, Sarcoma 180 intraperitoneal in ICR mice, life-span and survivors on 40th day (Test Example 1); type: in vivo; conditions: 0.33 mg/mouse i.p. three times; for Life-span prolongation ratio (T/C, %): only related to mice found dead
Method: Antitumor action of the compounds in Working Examples
(§1) ICR mice (a group consisting of five mice) were inoculated intraperitoneally with 1×10^5 Sarcoma 180 cells per mouse, and then given intraperitoneally 0.33 mg/mouse of a compound dissolved in physiological saline, three times, i.e. 1 hour, 1 day and 2 days after inoculation. Reference compound IV, Va or Vb was given to mice under the same conditions. Shown in Table 1 are the life-span prolongation ratio against the untreated control group and the number of survived mice on the 40th day after the initiation of the test.

[2] = system: Platelet aggregation caused by PAF; assay: Inhibition of PAF-induced platelet aggregation in rabbit PRP (Test Example 5); type: cell-based; conditions: Oryctolagus cuniculus, PAF 1×10^-8 M, read-out: inhibition ratio (%) of PAF-induced platelet aggregation; for inhibition at 30 µM: 3 × 10^-5 M; for inhibition at 3 µM: 3 × 10^-6 M; for inhibition at 0.3 µM: 3 × 10^-7 M
Method: Blood was collected directly from a male rabbit, using a syringe containing 3.15% of citric acid (at a ratio of 1 part to 9 parts of blood) as an anticoagulant, and centrifuged at 800 rpm for 10 minutes at room temperature to obtain platelet rich plasma (PRP). The remaining blood was centrifuged further at 3000 rpm for 10 minutes to obtain platelet poor plasma (PPP) as the supernatant. By dilution of PRP with PPP, the platelet count was adjusted to about 500,000 cells/μl. After 250 μl of the resulting PRP was stirred at 37° C. for 2 minutes, a certain amount of the test compound was added, and the mixture was stirred for further 2 minutes, and then 1×10^-8 M of PAF was added. Platelet aggregation was measured by using a platelet aggregometer (manufactured by Rika Denki Co. in Japan). The aggregation-inhibiting activity of a test compound was determined from the inhibition ratio against maximal transmittance (maximal aggregation ratio) caused by PAF in the control PRP.

[3] = system: macrophages; conditions: even at about 1000 times concentration of that of PAF; cited from earlier work
[4] = system: Sarcoma 180 cells; assay: Antitumor action, Sarcoma 180 intraperitoneal in ICR mice, life-span and survivors on 60th day (Test Example 6); type: in vivo; conditions: Sarcoma-180, ip, 1440 h; for response vs control in vivo at 0.33 mg: read-out: Life-span prolongation ratio (T/C)
Method: (§2) Antitumor action of the compounds of Working Examples
as §1, with “inoculation.” for “inoculation. Reference compound IV, Va or Vb was given to mice under the same conditions.”, “Table 6” for “Table 1”, “the 60th” for “the 40th”

[5] = system: Sarcoma 180 cells; assay: Antitumor action, Sarcoma 180 subcutaneous in ICR mice, intravenous dosing, tumor proliferation inhibition (Test Example 7); type: in vivo; conditions: 0.3 mg/mouse i.v. 9 times; tumor weight after 21 days
Method: as §2
ICR mice (a group consisting of 5 mice) were inoculated subcutaneously with 1×10^5 Sarcoma 180 cells per mouse, and given intravenously 0.3 mg/mouse of a compound of a Working Example dissolved in physiological saline 9 times in total, i.e. 8, 9, 10, 13, 14, 15, 16, 17, and 20 days after inoculation. After 21 days, the tumor tissue was extirpated and the tumor weight was weighed. Shown in Table 7 is tumor proliferation inhibition ratio as compared with the untreated control group.

[6] = system: Sarcoma 180 cells; assay: Antitumor action, Sarcoma 180 subcutaneous in ICR mice, intravenous dosing, tumor proliferation inhibition (Test Example 2); type: in vivo; conditions: tumor weight after 21 days
Method: (§3) Antitumor action of the compound of Working Example 8
ICR mice (a group consisting of 5 mice) were inoculated subcutaneously with 1×10^6 Sarcoma 180 cells per mouse, and given intravenously 0.03 mg/mouse or 0.3 mg/mouse of the compound of Working Example 8 dissolved in physiological saline 9 times in total, i.e. 8, 9, 10, 13, 14, 15, 16, 17, and 20 days after inoculation. The Reference compound (IV), 0.3 mg/mouse, was given under the same conditions. After 21 days, the tumor tissue was extirpated and the tumor weight was weighed. Shown in Table 2 is tumor proliferation inhibition ratio as compared with the untreated control group.

[7] = system: mouse mammary carcinoma cells MM46; assay: Antitumor action, MM46 intraperitoneal in C3H mice, life-span and survivors on 40th day (Test Example 3); type: in vivo; conditions: 0.25 mg/mouse once a day for 4 days
Method: as §3
C3H mice (a group consisting of 5 mice) were inoculated intraperitoneally with 1×10^4 mouse mammary carcinoma cells MM46 per mouse, and given 0.25 mg/mouse of the compound of Working Example 8 dissolved in physiological saline once a day for 4 consecutive days starting from the second day after the inoculation. The Reference compound (IV) was given under the same conditions. Shown in Table 3 are the life-span prolongation ratio against the untreated control group and the number of survived mice on the 40th day after initiation of the test.

[8] = system: mouse mammary carcinoma cells MM46; assay: Antitumor action, MM46 intraperitoneal in C3H mice, life-span and survivors on 60th day (Test Example 8); type: in vivo; conditions: for Life-span prolongation ratio (T/C, %): mice found dead only
Excerpt: as §2
C3H mice (a group consisting of 5 mice) were inoculated intraperitoneally with 1×10^4 mouse mammary carcinoma cells MM46 per mouse, […] saline once a day for 4 consecutive days starting from the second day after inoculation. Shown in Table 8 are the life-span prolongation ratio against the untreated control group and the number of survived mice on the 60th day after initiation of the test.

[9] = system: Sarcoma 180 cells; assay: Antitumor action, Sarcoma 180 subcutaneous in ICR mice, oral dosing (Test Example 9); type: in vivo; conditions: 0.3 mg/mouse orally eight times, after 20 days; for Inhibition ratio (%): against untreated control
Method: Antitumor action of the compounds of Working Examples 8 and 24
ICR mice (a group consisting of 5 mice) were inoculated subcutaneously at the dorsolateral area with […] 1×10^6 Sarcoma 180 cells per mouse, and given orally 0.3 mg/mouse of the compound of Example 8 or the compound of Example 24 eight times in total, i.e. 8th, 9th, 10th, 13th, 14th, 15th, 16th, and 17th day after inoculation. After 20 days the tumor tissue was extirpated and the tumor weight was weighed. Shown in Table 9 is tumor proliferation inhibition ratio against the untreated control.

[10] = 0.33 mg/mouse i.p. three times, 60th day, read-out: No. of survivors/No. of mice tested (converted)
[11] = 0.33 mg/mouse i.p. three times, survivors on day 60 not included
[12] = 0.125 mg/mouse once a day for 4 days
[13] = 0.25 mg/mouse once a day for 4 days

In the case of CCCCCCCCCCCCCCCCCCOCC(COCCOCCOCC[N+](C)(C)C)OC(=O)CC(C)=O (stereo not shown) [Example 15, 2-[2-[2-[2-(Acetoacetyloxy)-3-(octadecyloxy)propyloxy]ethoxy]ethoxy]ethyltrimethylammonium chloride], the “No. of survivors/No. of mice tested” value [1] is reported as 4/5, the “Life-span prolongation ratio (T/C, %)” value [1] is reported as 291% and the inhibition at 30 µM [2] is reported as 100%. It also gave an inhibition at 3 µM [2] of 43%.
For lysolecithin, the macrophage activation [3] is given as “cannot activate macrophages”.
In the case of CCCCCCCCCCCCCCCCCCOCC(COCCOCC[N+](C)(C)C)OCC(C)=O (stereo not shown) [Example 29, 2-[2-[3-(Octadecyloxy)-2-(2-oxopropyloxy)propyloxy]ethoxy]ethyltrimethylammonium chloride], the responders at 0.33 mg [4, 10] is reported as 60% and the response vs control in vivo at 0.33 mg [4, 11] is reported as 220%.
With CC(=O)CC(=O)OC(COCCCCCCCCCCCCC1CCCCC1)COCCOCC[N+](C)(C)C (stereo not shown) [Example 26, 2-[2-[2-Acetoacetyloxy-3-(12-cyclohexyl)dodecyloxypropyloxy]ethoxy]ethyltrimethylammonium chloride] the responders at 0.33 mg [4, 10] was 0%, the response vs control in vivo at 0.33 mg [4, 11] was 295% and the “Inhibition ratio (1-T/C) (%)” value [5] was 60%.
C[N+](C)(C)CCOCCOCC(COCCCCCCCCCCCCC1CCCCC1)OCC(=O)[O-] (stereo not shown) [Example 66, 3-(12-Cyclohexyldodecyloxy)methyl-10-trimethylammonio-2,5,8-trioxadecane carboxylate] gave a responders at 0.33 mg [4, 10] of 0% and a response vs control in vivo at 0.33 mg [4, 11] of 235%.
With CCCCCCCCCCCCCCCCCCOCC(COCCCC[N+](C)(C)C)OC (stereo not shown) [Compound Vb, reference compound] the “No. of survivors/No. of mice tested” value [1] was 0/5, the “Life-span prolongation ratio (T/C, %)” value [1] was 291% and the inhibition at 30 µM [2] was 97%. For the same compound, the inhibition at 3 µM [2] was 5% and the inhibition at 0.3 µM [2] was 0%.
For CCCCCCCCCCCCCCCCCCOCC(COCCOCC[N+](C)(C)C)OC (stereo not shown) [Example 8, 2-[2-[2-Methoxy-3-(octadecyloxy)propyloxy]ethoxy]ethyltrimethylammonium chloride], the “No. of survivors/No. of mice tested” value [1] was 5/5, the “Inhibition ratio (1-T/C) (%)” value ([6]; 0.03 mg/mouse i.v. 9 times) was 65% and the “Inhibition ratio (1-T/C) (%)” value ([6]; 0.3 mg/mouse i.v. 9 times) was 65%. The “No. of survivors/No. of mice tested” value [7] was 5/5, the inhibition at 30 µM [2] was 100% and the inhibition at 3 µM [2] was 38%. For the same compound, the inhibition at 0.3 µM [2] was 18%, the “No. of survivors/No. of mice tested” value [8, 12] was 2/5 and the “Life-span prolongation ratio (T/C, %)” value [8, 12] was 144%. The “No. of survivors/No. of mice tested” value [8, 13] was 3/5, the “Life-span prolongation ratio (T/C, %)” value [8, 13] was 315% and the “Weight of tumor” value [9] was 0.35 ± 0.04 g. For the same compound, the “Inhibition ratio (%)” value [9] was 75%.
In the case of CCCCCCCCCCCCCCCCCCOCC(COCCOCC[N+](C)(C)C)OC(=O)CC(C)=O.[Cl-] (stereo not shown) [Example 12, 2-[2-[2-(Acetoacetyloxy)-3-(octadecyloxy)propyloxy]ethoxy]ethyltrimethylammonium chloride], the responders at 0.33 mg [4, 10] is reported as 40%, the response vs control in vivo at 0.33 mg [4, 11] is reported as 292% and the “No. of survivors/No. of mice tested” value [8, 13] is reported as 3/5. The “Life-span prolongation ratio (T/C, %)” value [8, 13] was 126% and the “No. of survivors/No. of mice tested” value ([8]; 0.5 mg/mouse once a day for 4 days) was 5/5.
For CCCCCCCCCCCCCCCCCCOCC(COCCOCC[N+](C)(C)C)OC(=S)NC (stereo not shown) [Example 42, 2-[2-[2-(Methylthiocarbamoyloxy)-3-(octadecyloxy)propyloxy]ethoxy]ethyltrimethylammonium chloride], the responders at 0.33 mg [4, 10] was 0% and the response vs control in vivo at 0.33 mg [4, 11] was 340%.
CNC(=S)OC(COCCCCCCCCCCCCC1CCCCC1)COCCOCC[N+](C)(C)C (stereo not shown) [Example 43, 2-[2-[3-(12-Cyclohexyl)dodecyloxy-2-N-methylthiocarbamoyloxypropyloxy]ethoxy]ethyltrimethylammonium chloride] gave a responders at 0.33 mg [4, 10] of 20% and a response vs control in vivo at 0.33 mg [4, 11] of 323%.
In the case of COC(COCCCCCCCCCCCC(F)(F)C(F)(F)C(F)(F)C(F)(F)C(F)(F)C(F)(F)C(F)(F)C(F)(F)F)COCCOCC[N+](C)(C)C (stereo not shown) [Example 51, 2-[2-[2-Methoxy-3-(12,12,13,13,14,14,15,15,16,16, 17,17,18,18,19,19,19-heptadecafluorononadecyloxy)propyloxy)ethoxy]ethyltrimethylammonium chloride], the response vs control in vivo at 0.33 mg ([4]; Mus musculus) is reported as 295% and the responders at 0.33 mg ([4]; Mus musculus, read-out: No. of survivors/No. of mice tested) is reported as 0%.
COC(COCCOCC[N+](C)(C)C)COCCC(C)CCCC(C)CCCC(C)CCCC(C)C (stereo not shown) [Example 59, 2-[2-[2-Methoxy-3-(3,7,11,15-tetramethylhexadecyloxy)propyloxy]ethoxy]ethyltrimethylammonium chloride] gave a responders at 0.33 mg [4, 10] of 0% and a response vs control in vivo at 0.33 mg [4, 11] of 224%.
For CCCCCCCCCCCCCCCCCCOCC(COCC[N+](C)(C)C)OC (stereo not shown) [Compound Va, reference compound], the “No. of survivors/No. of mice tested” value [1] was 1/5, the “Life-span prolongation ratio (T/C, %)” value [1] was 241% and the inhibition at 30 µM [2] was 27%. The inhibition at 3 µM [2] was 0% and the inhibition at 0.3 µM [2] was 0%.
For COC(COCCCCCCCCCCCCC1CCCCC1)COCCOCC[N+](C)(C)C (stereo not shown) [Example 24, 2-[2-[3-(12-Cyclohexyl)dodecyloxy-2-methoxypropyloxy]ethoxy]ethyltrimethylammonium chloride], the “No. of survivors/No. of mice tested” value [1] was 3/5, the “Life-span prolongation ratio (T/C, %)” value [1] was 262% and the inhibition at 30 µM [2] was 100%. The inhibition at 3 µM [2] was 63%, the responders at 0.33 mg [4, 10] was 0% and the response vs control in vivo at 0.33 mg [4, 11] was 302%. For the same compound, the “Inhibition ratio (1-T/C) (%)” value [5] was 78%, the “Weight of tumor” value [9] was 0.35 ± 0.15 g and the “Inhibition ratio (%)” value [9] was 75%.
With CCCCCCCCCCCCCCCCCCOCC(COCCOCCOCC[N+](C)(C)C)OC (stereo not shown) [Example 9, 2-[2-[2-[2-Methoxy-3-(octadecyloxy)propyloxy]ethoxy]ethoxy]ethyltrimethylammonium chloride] the “No. of survivors/No. of mice tested” value [1] was 1/5, the “Life-span prolongation ratio (T/C, %)” value [1] was 247% and the inhibition at 30 µM [2] was 100%. It also gave an inhibition at 3 µM [2] of 66% and an inhibition at 0.3 µM [2] of 3%.
Work on CCCCCCCCCCCCCCCCCCOCC(COCCOCC[N+](C)(C)C)OCC1CO1 (stereo not shown) [Example 47, 2-[2-[2-(2,3-Epoxypropyloxy)-3-(octadecyloxy)propyloxy]ethoxy]ethyltrimethylammonium chloride] yielded a responders at 0.33 mg [4, 10] of 20% and a response vs control in vivo at 0.33 mg [4, 11] of 237%.
